Source: PubChem BioAssay (NCI)
“And” between values parts separate entries of the source, which are not always exact repeats. Identical values can stand only once.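 1) Cells in 96-well plates. 2) Compound, 48 h, 5 concentrations. 3) Linear interpolation between surrounding doses. 4) Unreached endpoint = highest concentration. The concentration for 50% growth inhibition is given as GI50. TGI marks complete inhibition of growth.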

Key:
Test in all cases: growth of human tumour cells (NCI), 48 h
K-562 leukemia = test system: K-562 leukemia
HOP-92 NSCLC = test system: HOP-92 NSCLC
MOLT-4 leukemia = test system: MOLT-4 leukemia
A549 NSCLC = test system: A549 NSCLC
HS 578T breast = test system: HS 578T breast
UO-31 renal = test system: UO-31 renal
MALME-3M melanoma = test system: MALME-3M melanoma

Row | Compound | GI50 (K-562 leukemia) [µM] | TGI (K-562 leukemia) | GI50 (HOP-92 NSCLC) [µM] | TGI (HOP-92 NSCLC) | GI50 (MOLT-4 leukemia) [µM] | TGI (MOLT-4 leukemia) [µM] | GI50 (A549 NSCLC) [µM] | TGI (A549 NSCLC) [µM] | GI50 (HS 578T breast) [µM] | TGI (HS 578T breast) [µM] | GI50 (UO-31 renal) [µM] | TGI (UO-31 renal) [µM] | TGI (MALME-3M melanoma) [µM] | GI50 (MALME-3M melanoma) [µM]
1 | O=C(Nc1ccc(-n2cc(-c3ccncc3)c(-c3ccc(Cl)c(O)c3)n2)cc1)c1cc(C(F)(F)F)cc(C(F)(F)F)c1 | 4.97 | 88 µM | 3.89 | 26.2 µM | 8.87 | > 100 | 5.43 | 22 | 5.32 | > 100 | 2.8 | 13.5 |  | 
2 | CC(=O)C1(C(=O)C(=[N+]=[N-])S(=O)(=O)c2ccccc2)CC1 |  | > 100 µM |  |  |  | > 100 |  | > 100 |  | > 100 |  | > 100 | > 100 | 
3 | O=C1Nc2ccc(-c3cccnc3)cc2/C1=C/c1cc(Br)c(O)c(Br)c1 | 9.07 | > 25 µM | 8.32 | > 25 µM | 8.04 | > 25 | 8.05 | > 25 | 5.67 | > 22 | 6.54 | > 18.3 | 23.9 | 3.96
4 | COc1ccc([C@@]23Oc4cc(OC)cc(OC)c4[C@]2(O)[C@H](O)[C@H](C(=O)N(C)C)[C@H]3c2ccccc2)cc1 | 0.00334 | 25 µM and > 100 µM | 0.0304 | 0.0741 µM and 0.4 µM |  |  |  |  | 0.0225 |  | 0.0214 |  |  | 0.0142
5 | Cc1cc(OC2OC(CO)C(O)C(O)C2O)ccc1O (stereo not given) |  | > 100 µM |  | > 100 µM |  | > 100 |  | > 100 |  | > 100 |  | > 100 | > 100 | 
6 | C/C(=C/CCC(C)[C@@H]1CC[C@]2(C)C3=C(CC[C@@]12C)[C@@]1(C)CCC(=O)C(C)(C)[C@@H]1CC3)C(=O)O (stereo not given in full) |  |  | 0.783 | 2.09 µM | 1.46 | 3.24 | 0.387 | 1.84 | 1.45 | 3.4 | 1.08 | 2.44 | 3.5 | 1.66
7 | Nc1nc(-c2ccccc2)c(CC(=O)O)s1 |  | > 100 µM |  | > 100 µM |  | > 100 |  | > 100 |  | > 100 |  | > 100 | > 100 | 
8 | Nc1nc(Cl)c2ncn(Cc3ccc(C45CC6CC(CC(C6)C4)C5)c(OCc4cc(F)c(F)cc4F)c3)c2n1 |  |  | 2.02 | 6.03 µM | 0.837 | 2.71 | 1.94 | 5.89 | 12.1 | 71.3 | 4.54 | 19.4 | 8.62 | 2.47
9 | O=C(CCCCN1CCN(CCCCC(=O)Nc2ccccc2C#C/C=C\C#Cc2ccccc2C(F)(F)F)CC1)Nc1ccccc1C#C/C=C\C#Cc1ccccc1C(F)(F)F | 8.04 | 34.8 µM | 4.14 | 11.5 µM | 8.55 | 27 | 12.4 | 37.6 | 11.2 | 25.3 | 11.8 | 48 | 29.5 | 12.2
10 | O=[N+]([O-])/C=C/c1ccc2ccccc2c1 |  | 9.42 µM |  | 21.1 µM |  |  |  | > 58.5 |  | > 61.8 |  | 35.1 | 33.9 | 
11 | Nc1c(C(=O)Nc2ccccc2)sc2nc3c(cc12)C(=O)CCC3 | 0.287 | > 100 µM |  |  |  | > 100 | 0.436 | > 100 | 0.524 | > 72.4 | > 27.3 | > 100 | > 100 | 4.66
12 | COc1cccc(-c2cc(=O)c3cc(N4CCN(C)CC4)ccc3[nH]2)c1 | 0.492 | 6.22 µM | 3.1 |  | 2.06 | 7.21 | 6.99 | > 100 |  | 4.88 |  | > 100 |  | 
13 | O=C(CI)NC(=O)NC(=O)NCc1ccccc1 | 1.16 | 4.05 µM | 1.71 | 6.29 µM | 0.969 | 3.15 | 18.7 | 42.8 | 20.9 | 72.4 | 1.66 | 3.31 | 3.52 | 1.57
14 | N=C(N)n1cc(/C=N/N=C(N)N)cn1 |  | > 100 µM |  | > 100 µM |  | > 100 |  | > 100 |  | > 100 |  | > 100 | > 100 | 
15 | O=C(O)c1ccccc1NCn1nc(-c2ccccc2O)oc1=S | 70.9 | > 100 µM | 30.4 | 94.6 µM | 9.98 | 30 | 51 | > 100 | > 100 | > 100 | > 100 | > 100 |  | 
16 | CCOC(=O)c1cn(C)c2c(OC)c3ccccc3c(OC)c2c1=O | 36.4 | > 100 µM |  |  | 18.9 | 51.7 | 36.4 | > 100 | 23.6 | 63.8 | > 100 | > 100 | 30.3 | 8.95
17 | OCCNc1nc2ccccc2c2[nH]c3ccccc3c12 | 0.44 | > 26.3 µM | 0.943 | 13.2 µM | 0.24 | 1.48 | 0.394 | 2.19 | 0.71 | 4.57 | 0.297 | 1.37 | 1.91 | 0.487
18 | NC(=O)c1nc(-c2c(F)cccc2Cl)oc1Nc1ccc(C(=O)N2CCOCC2)cc1 | 4.66 | > 100 µM | 0.262 | 2.11 µM | 2.03 | 37.7 | 0.936 | > 100 |  |  | 1.2 | 25.8 | 55.6 | 13
19 | CC(=O)Nc1cccc(C#Cc2cncnc2Nc2ccc(OCc3cccc(F)c3)c(Cl)c2)c1 | 8.96 | > 25 µM | 4.05 | > 22.5 µM | 6.82 | > 25 | 5.87 | > 25 | 10.2 | > 25 | 3.55 | > 25 | > 25 | 12.5

Row | Compound | GI50 (K-562 leukemia) [µM] | TGI (K-562 leukemia) | GI50 (HOP-92 NSCLC) [µM] | TGI (HOP-92 NSCLC) | GI50 (MOLT-4 leukemia) [µM] | TGI (MOLT-4 leukemia) [µM] | GI50 (A549 NSCLC) [µM] | TGI (A549 NSCLC) [µM] | GI50 (HS 578T breast) [µM] | TGI (HS 578T breast) [µM] | GI50 (UO-31 renal) [µM] | TGI (UO-31 renal) [µM] | TGI (MALME-3M melanoma) [µM] | GI50 (MALME-3M melanoma) [µM]
20 | COc1ccc(N(CC(=O)O)N=O)cc1 |  | > 100 µM |  | > 100 µM |  | > 100 |  | > 100 |  | > 100 |  | > 100 | > 100 | 
21 | CN(C)CCNC(=O)Nc1ccc(N(C)c2ccnc(Nc3ccc(CS(C)(=O)=O)cc3)n2)cc1 | > 25 | > 25 µM | 6.99 | > 25 µM | > 25 | > 25 | > 25 | > 25 | > 19.8 | > 25 | > 25 | > 25 | > 25 | > 25
22 | C#COc1cccc(Nc2ncnc3cc(NC(=O)[C@@H](C)Cl)ccc23)c1 | 2.56 | > 62.5 µM | > 62.5 | > 62.5 µM | 4.29 | > 62.5 | 9.86 | > 62.5 | 7.88 | > 62.5 | 17.8 | > 62.5 | > 62.5 | 20.1
23 | Cn1cc(-c2ccc3ncc(-c4ccc(CC(=O)Nc5cc(C(C)(C)C)nn5C)cc4)cc3c2)cn1 | 1.13 | > 20 µM | 2.45 | > 20 µM | 0.706 | 3.25 | 1.44 | > 20 | 0.798 | > 20 | 0.331 | 2.08 | > 20 | 0.721
24 | S=C(Sc1ccc(Cl)cc1)Sc1ccc(Cl)cc1 | 1.87 | 7.63 µM | 1.99 | 5.01 µM | 1.27 | 4.53 | 2.99 | 13.7 | 3.96 | 16.3 | 1.31 | 2.63 | 4.8 | 2.31
25 | CCc1ccc(Oc2c(-c3ccc(OCc4ccc(Cl)cc4)cc3O)nn(C)c2C(F)(F)F)cc1 | 0.39 | 1.58 µM | 0.324 | 1.77 µM | 0.565 | 2.93 | 0.514 | 1.95 | 1.5 | 4.92 | 0.432 | 1.63 | 2.6 | 1.14
26 | COc1cc2c(c3c1c(=O)c1ccccc1n3C)C=C([N+](=O)[O-])C(C)(C)O2 |  | > 100 µM |  | > 100 µM |  | > 100 |  | > 100 |  | > 100 |  | > 100 |  | 
27 | Nc1ncnc2c1c(-c1ccc(Oc3ccccc3)cc1)nn2CC1SSCC1O (stereo not given) | 0.788 | 7.39 µM | 1.72 | 8.23 µM | 0.124 | 0.621 | 3.8 | 9.17 | 5.84 | 19.3 | 1.22 | 5.88 | 3.78 | 0.847
28 | Cc1ccccc1Nc1cc(O)c2c(=O)cc(-c3ccccc3)oc2c1 | 0.469 | > 100 µM | 3.51 | > 100 µM | 2.66 | > 100 | 2.11 | > 100 |  |  |  |  | > 100 | 2.43
29 | COC(=O)[C@]12CC[C@@H](C)[C@H](C)[C@@H]1C1=CC[C@@H]3[C@@]4(C)C(C=O)=C[C@@](C)(COS(C)(=O)=O)C4=CC[C@@]3(C)[C@]1(C)CC2 | 0.308 | 1.17 µM | 0.197 | 0.55 µM | 0.244 | 1.05 | 0.468 | 1.92 | 0.234 | 0.711 | 0.158 | 0.321 | 0.34 | 0.173
30 | OCC1OC(OC2(CO)OC(CO)C(O)C2O)C(O)C(O)C1O (stereo not given) | > 100 | > 100 µM | > 100 | > 100 µM | > 100 | > 100 | > 100 | > 100 |  |  | > 100 | > 100 | > 100 | > 100
31 | CCN1C(=O)N(CC)C2C1NC(=S)N2/N=C/C=C/c1ccccc1 (stereo not given) | 0.0495 | > 100 µM |  |  | 0.277 | > 100 | 0.176 | > 100 | 0.0824 | > 100 | 0.192 | > 86.6 | > 100 | 3.55
32 | O=c1[nH]c(=S)[nH]c(O)c1/C=C1\C=Nc2ccccc21 | 8.04 | > 100 µM | 3.36 | 27.3 µM | 2.51 | 8.02 | 37.2 | > 100 | 1.95 | 6.19 |  |  |  | 
33 | CCOC(=O)c1cc(C(=O)c2ccc(OC)c(OC)c2)n2c1ccc1ccc3cccnc3c12 |  |  | 6.78 | > 100 µM | 4.53 | > 100 | 5.46 | > 100 | 3.04 | > 100 | 0.891 | > 100 | > 100 | 1.24
34 | [O-][n+]1c2cccc(O)c2[n+]([O-])c2cccc(O)c21 |  | > 100 µM |  | 97.5 µM |  | > 100 |  | > 100 |  | > 100 |  | > 100 |  | 
35 | C[C@]12CCc3nc(Nc4ccc(O)cc4)sc3C1=CC[C@@H]1[C@@H]2CC[C@]2(C)/C(=N/NC(N)=S)CC[C@@H]12 |  |  | 1.71 | 4.2 µM | 0.47 | 3.39 | 0.498 | 1.86 | 1.75 | 6.36 | 1.3 | 2.57 | 2.38 | 1.12
36 | O=C1c2cccc3c(N4CCOCC4)ccc(c23)C(=O)N1CCN1CCN(CCCCCN2CCN(CCN3C(=O)c4cccc5c(N6CCOCC6)ccc(c45)C3=O)CC2)CC1 | 36 | > 100 µM | 76.6 | > 100 µM |  |  | > 100 | > 100 | > 100 | > 100 |  |  | > 100 | > 100
37 | CCN(CC)CCCC(Nc1c2ccc(Cl)cc2nc2ccc(OC)cc12)c1ccc(Cl)cc1 (stereo not given) | 0.221 | 0.432 µM | 1.15 | 2.81 µM | 0.761 | 2.3 | 1.52 | 3.05 |  |  | 1.58 | 3.08 | 3.55 | 1.88
38 | CC(C)(C)O/N=C/c1cc(NC(=S)c2ccccc2)ccc1Cl |  |  |  | 34.4 µM |  | 39.7 |  | 35.1 |  | 63 |  | 31.6 | 40.6 | 
